ChEMBL document CHEMBL3046956, “Photosynthetic Electron Transport Inhibitory Activity of 2-Aralkylamino-4-methyl-6-trifluoromethyl-1, 3, 5-triazine Derivatives” (J Pestic Sci, 1999)

Assay: Potency index, ratio of pI50 for simazine to pI50 for test compound against photosynthetic electron transport in Spinacia oleracea (spinach) thylakoids using oxygen electrode by Boger method

Row | Structure (SMILES) | Ratio
1 | Cc1nc(NCc2ccc(C(F)(F)F)cc2)nc(C(F)(F)F)n1 | 10
2 | Cc1nc(NCc2ccc(Cl)cc2)nc(C(F)(F)F)n1 | 10
3 | Cc1nc(NCc2ccc(F)cc2)nc(C(F)(F)F)n1 | 10
4 | Cc1nc(NCc2ccc([N+](=O)[O-])cc2)nc(C(F)(F)F)n1 | 10
5 | Cc1nc(NCc2ccc(Br)cc2)nc(C(F)(F)F)n1 | 10

Assay: Inhibition of photosynthetic electron transport in Spinacia oleracea (spinach) thylakoids using oxygen electrode by Boger method

Row | Structure (SMILES) | pI50
6 | Cc1nc(NCc2ccc(Cl)cc2)nc(C(F)(F)F)n1 | 6.98
7 | Cc1nc(NCc2ccccc2Cl)nc(C(F)(F)F)n1 | 5.95
